From US8211909B2, “Treatment of antibiotic-resistant bacteria infection” (TaiGen Biotechnology Co., Ltd., priority 2008, dated 2012)
Values after ≈ are worked out from the molar mass of the structure shown. Read-outs that look alike come from different tables or passages of the source.

Experiments:
[1] = system: Vancomycin-resistant E. faecium; assay: MIC by agar dilution (CLSI-M100-S18), Taiwan Enterococci isolates; type: cell-based, Enterococcus faecium
Procedure: (§1) Compound 1 was tested for its inhibitory effect against multidrug-resistant Methicillin-resistant Staphylococcus aureus and Enterococci obtained by 10 medical centers in all regions of Taiwan. MICs were determined using the agar dilution methods recommended by the Clinical and Laboratory Standards Institute (CLSI-M100-S18).

[2] = system: Staphylococcus aureus strains (MRSA, hVISA, VISA, VRSA, quinolone-resistant MRSA); assay: MIC by agar dilution against Staphylococcal strains (MRSA, hVISA, VISA, VRSA, quinolone-resistant MRSA); type: cell-based; settings: for MIC50 / MIC90 / MIC: Staphylococcus aureus
Procedure: Compound 1 was tested for its inhibitory effect against 26 Methicillin-resistant Staphylococcus aureus (MRSA) strains, 2 hetero-Vancomycin intermediate Staphylococcus aureus (hVISA) strains, 24 Vancomycin-intermediate Staphylococcus aureus (VISA) strains, 5 Vancomycin-resistant Staphylococcus aureus (VRSA) strains, and 31 quinolone-resistant Vancomycin-susceptibale MRSA strains with defined mutations in QRDR. These mutations were determined by sequencing analysis of the QRDR (gyrA, gyrB, grlA, and grlB). Efflux testing was performed by the reserpine method (Brenwald, et al., Antimicrob. Agents Chemother. 1998, 42: 2032-2035).

S. pneumoniae = assay: CANWARD 2007 gram-positive cocci, CLSI broth microdilution; type: cell-based, Streptococcus pneumoniae; set-up: MIC50 / MIC90: unit not given here
Procedure: (§2) From January-December 2007, 12 hospitals across Canada submitted isolates from patients attending hospital clinics, emergency rooms, medical and surgical wards, and intensive care units. 7881 isolates (CANWARD 2007) were collected including 3473 gram-positive cocci. Susceptibility testing for Compound 1 and Levofloxacin was performed using the Clinical and Laboratory Standards Institute broth microdilution.

[3] = system: Staphylococcus epidermidis (MSSE, MRSE); assay: as above; type: cell-based; set-up: MIC50 / MIC90: unit not given beside the values
Procedure: as §2

[4] = system: S. aureus (MSSA, CA-MRSA, HA-MRSA, VISA, VRSA); assay: CANWARD 2007 / NARSA gram-positive cocci, CLSI broth microdilution; type: cell-based, Staphylococcus aureus; set-up: MIC50 / MIC90: unit not given here
Procedure: as §2

H. pylori isolates = assay: MIC by agar dilution against 200 H. pylori isolates (Taiwan); type: cell-based, Helicobacter pylori
Procedure: MICs were determined using the agar dilution methods recommended by the Clinical and Laboratory Standards Institute (CLSI-M100-S18).

[5] = system: multidrug-resistant Methicillin-resistant Staphylococcus aureus; assay: MIC by agar dilution (CLSI-M100-S18), Taiwan multidrug-resistant MRSA isolates; type: cell-based; settings: for MIC50 / MIC90: Staphylococcus aureus, MRSA
Procedure: as §1

[6] = Enterococcus faecium, Vancomycin-resistant E. faecium (n = 78)
[7] = hVISA(2) + VISA (24) + VRSA (5)
[8] = Helicobacter pylori, 200 isolates of H. pylori
[9] = Ciprofloxacin-resistant MRSA (n = 20)
[10] = Ciprofloxacin-susceptible MRSA (n = 20)
[11] = Daptomycin-nonsusceptible MRSA (n = 5)
[12] = Vancomycin-intermediate MRSA (n = 50)

## COc1c(N2C[C@@H](C)C[C@H](N)C2)ccc2c(=O)c(C(=O)O)cn(C3CC3)c12 [Compound 1, (3S,5S)-7-[3-amino-5-methyl-piperidinyl]-1-cyclopropyl-1,4-dihydro-8-methoxy-4-oxo-3-quinolinecarboxylic acid]
[1]; [6]
  MIC50: 4 µg/mL (≈ 10.8 µM)
  MIC90: 16 µg/mL (≈ 43.1 µM)
[1]; Vancomycin-resistant E. faecium (n = 78)
  MIC Range: 0.06 to 16 µg/mL
[1]; Vancomycin-resistant Enterococcus faecium
  inhibition (in words): effective
[2]; Methicillin-resistant, hVISA, VISA, VRSA and quinolone-resistant Vancomycin-susceptible MRSA isolates
  inhibition (in words): effectively inhibited
[2]; MRSA (26)
  MIC50: 0.03 µg/mL (≈ 0.0808 µM)
  MIC90: 0.06 µg/mL (≈ 0.162 µM)
[2]; Quinolone-resistant MRSA (31)
  MIC50: 1 µg/mL (≈ 2.69 µM)
  MIC90: 2 µg/mL (≈ 5.38 µM)
[2]; [7]
  MIC50: 1 µg/mL
  MIC90: 2 µg/mL
[2]; read-out: MIC Range, MRSA (26)
  MIC: 0.016 to 0.06 µg/mL (≈ 0.0431 to 0.162 µM)
[2]; read-out: MIC Range, Quinolone-resistant MRSA (31)
  MIC: 0.5 to 4 µg/mL (≈ 1.35 to 10.8 µM)
[2]; read-out: MIC Range, hVISA(2) + VISA (24) + VRSA (5)
  MIC: 0.06 to 2 µg/mL
[2]; read-out: MICs, against these strains
  MIC: 0.06 to 4 µg/mL (≈ 0.162 to 10.8 µM)
S. pneumoniae; PenI-SPN, PenR-SPN, CipR-SPN
  activity compared with Levofloxacin (in words): more active than Levofloxacin
S. pneumoniae; SPN CipR (29)
  MIC50: 0.03
  MIC90: 0.12
S. pneumoniae; SPN PenI (103)
  MIC50: 0.015/0.015
  MIC90: 0.015/0.015
S. pneumoniae; SPN PenR (34)
  MIC50: 0.015
  MIC90: 0.03
S. pneumoniae; SPN PenS (519)
  MIC50: 0.015/0.015
  MIC90: 0.015/0.015
S. pneumoniae; SPN-All (656)
  MIC50: 0.015/0.015
  MIC90: 0.015/0.015
[3]; MRSE
  activity compared with Levofloxacin (in words): more active than Levofloxacin
[3]; MRSE (9)
  MIC50: 2/2
  MIC90: 2/2
[3]; MSSE (32)
  MIC50: 0.03
  MIC90: 0.5
[4]; CA-MRSA (23)
  MIC50: 0.25
  MIC90: 0.5
[4]; HA-MRSA (91)
  MIC50: 4/>4
  MIC90: 4/>4
[4]; MRSA, VISA, VRSA
  activity compared with Levofloxacin (in words): more active than Levofloxacin
[4]; MSSA (372)
  MIC50: 0.03
  MIC90: 0.12
[4]; VISA (12), NARSA isolates
  MIC50: 1
  MIC90: 2
[4]; VRSA (7), NARSA isolates
  median MIC (single value under head MIC50/MIC90): 2
H. pylori isolates; H. pylori isolates
  inhibition (in words): effectively inhibited
  inhibition compared with other quinolones (in words): more effective in inhibiting the isolates of H. pylori than Ciprofloxacin, Levofloxacin, and Moxifloxacin, and comparable to Gemifloxacin
H. pylori isolates; [8]
  MIC50: 60 µg/mL (≈ 162 µM)
  MIC90: 250 µg/mL (≈ 673 µM)
[5]; [9]
  MIC Range: 0.5 to 1 µg/mL
  MIC50: 0.5 µg/mL (≈ 1.35 µM)
  MIC90: 1 µg/mL (≈ 2.69 µM)
[5]; [10]
  MIC Range: ≦0.03-0.06 μg/mL
  MIC50: ≤ 0.03 µg/mL
  MIC90: ≤ 0.03 µg/mL
[5]; [11]
  MIC Range: 0.5 to 1 µg/mL
  MIC50: 0.5 µg/mL (≈ 1.35 µM)
  MIC90: 1 µg/mL (≈ 2.69 µM)
[5]; MRSA isolates that are Ciprofloxacin-resistant, Vancomycin-intermediate-resistant, Daptomycin-nonsusceptible
  inhibition (in words): effective
[5]; [12]
  MIC50: 0.5 µg/mL (≈ 1.35 µM)
  MIC90: 2 µg/mL (≈ 5.38 µM)
  MIC Range: 0.03 to 8 µg/mL
